From ChEMBL document CHEMBL1201862, “PubChem BioAssay data set” (2004)
The source made the active and inactive calls.

Key:
SUMO-activating enzyme = SUMO-activating enzyme (Homo sapiens, UniProt Q9UBT2); test: blockers of UBC9-mediated SUMO conjugation – biochemical, AlphaScreen, SUMOylation inhibitor project, confirmation (AID 2018); format: functional
[1] = THP-1 cell cytotoxicity, dose response, cytotoxicity control for non-replicating M. tuberculosis project (AID 489025); format: functional
[2] = Vero E6 cell cytotoxicity, dose response, cytotoxicity control for non-replicating M. tuberculosis project, secondary assay (AID 492998); format: functional, VeroE6; settings: Vero C1008
[3] = reduction of Shn3 3'UTR-driven luciferase in osteoblasts – cell-based, Clone20 osteoblasts, firefly luciferase, cherry-picked, dose response (AID 624132); format: functional;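 note: firefly luciferase luminescence from reporter carrying the Shn3 3'UTR in osteoblasts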
[4] = non-specific 3'UTR reporter inhibition in Clone20-Shn3RL – cell-based, Renilla luciferase, cherry-picked, counter-screen for Shn3 inhibitor project, dose response (AID 624133); format: functional
[5] = loss of viability in HepG2 cells – cell-based, CellTiter-Glo, cherry-picked, cytotoxicity control for Shn3 inhibitor project, dose response (AID 624134); format: functional
[6] = microbe, parasite or virus in culture; format: functional; settings: Mycobacterium tuberculosis
[7] = target: T1, Replicative DNA helicase DnaB (Mycobacterium tuberculosis, UniProt P9WMR3); test: DnaB intein splicing inhibitors, dose response, biochemical, cell-free fluorescence (AID 449749); format: functional
T1 sequence (P9WMR3 whole entry): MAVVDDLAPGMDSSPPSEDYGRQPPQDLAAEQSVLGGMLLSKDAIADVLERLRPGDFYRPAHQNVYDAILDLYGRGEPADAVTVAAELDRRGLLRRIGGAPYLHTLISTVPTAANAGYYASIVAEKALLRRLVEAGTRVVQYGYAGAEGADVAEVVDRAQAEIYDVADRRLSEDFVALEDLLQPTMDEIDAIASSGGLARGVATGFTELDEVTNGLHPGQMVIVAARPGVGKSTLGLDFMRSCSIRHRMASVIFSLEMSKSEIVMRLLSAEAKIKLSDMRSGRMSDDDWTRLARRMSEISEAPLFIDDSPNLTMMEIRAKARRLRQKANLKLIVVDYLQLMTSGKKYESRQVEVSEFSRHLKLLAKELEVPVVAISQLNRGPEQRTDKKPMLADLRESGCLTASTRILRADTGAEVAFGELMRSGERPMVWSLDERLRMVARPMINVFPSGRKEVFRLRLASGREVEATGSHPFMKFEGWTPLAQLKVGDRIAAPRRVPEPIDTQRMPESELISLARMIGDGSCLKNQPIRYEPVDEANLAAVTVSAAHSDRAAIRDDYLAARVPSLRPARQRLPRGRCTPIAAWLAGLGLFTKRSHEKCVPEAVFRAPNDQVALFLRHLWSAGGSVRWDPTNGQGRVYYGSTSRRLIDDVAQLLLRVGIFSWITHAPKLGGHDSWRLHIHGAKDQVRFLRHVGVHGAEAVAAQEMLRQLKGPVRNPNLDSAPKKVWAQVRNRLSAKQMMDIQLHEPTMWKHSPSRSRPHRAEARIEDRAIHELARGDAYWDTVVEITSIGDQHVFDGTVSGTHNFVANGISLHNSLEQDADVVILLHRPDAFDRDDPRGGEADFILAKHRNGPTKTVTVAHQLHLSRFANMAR

Protein RecA = target: T2, Protein RecA (Mycobacterium tuberculosis, UniProt P9WHJ3); test: Fluorescence Cell-Free Homogeneous Dose Retest to Identify Inhibitors of RecA-Intein Splicing Activity. [Related pubchem assays (depositor defined):AID2097, AID2223, AID489010, AID492950]; format: functional
T2 sequence (P9WHJ3 whole entry): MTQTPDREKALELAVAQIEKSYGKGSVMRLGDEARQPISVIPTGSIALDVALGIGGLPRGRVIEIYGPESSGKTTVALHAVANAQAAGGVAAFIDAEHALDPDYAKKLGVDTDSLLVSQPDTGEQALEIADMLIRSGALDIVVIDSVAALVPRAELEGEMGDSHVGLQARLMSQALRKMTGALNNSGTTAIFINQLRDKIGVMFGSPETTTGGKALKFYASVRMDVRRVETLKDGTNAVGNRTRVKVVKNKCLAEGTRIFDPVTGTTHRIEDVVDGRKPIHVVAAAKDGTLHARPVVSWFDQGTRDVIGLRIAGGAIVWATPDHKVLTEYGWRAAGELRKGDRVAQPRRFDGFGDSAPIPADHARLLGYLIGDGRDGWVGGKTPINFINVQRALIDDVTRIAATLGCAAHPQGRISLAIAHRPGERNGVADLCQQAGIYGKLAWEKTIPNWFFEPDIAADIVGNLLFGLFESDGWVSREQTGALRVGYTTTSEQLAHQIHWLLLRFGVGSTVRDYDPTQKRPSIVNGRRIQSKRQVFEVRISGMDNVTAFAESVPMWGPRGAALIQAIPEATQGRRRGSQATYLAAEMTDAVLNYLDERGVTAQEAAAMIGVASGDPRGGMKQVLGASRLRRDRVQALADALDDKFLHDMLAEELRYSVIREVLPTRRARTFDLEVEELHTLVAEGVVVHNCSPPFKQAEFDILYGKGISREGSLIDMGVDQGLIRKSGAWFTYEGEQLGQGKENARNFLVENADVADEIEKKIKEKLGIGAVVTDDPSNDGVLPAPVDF

cells = format: functional
CAAX prenyl protease 2 = target: T3, CAAX prenyl protease 2 (Saccharomyces cerevisiae S288c, UniProt Q03530); format: biochemical
T3 sequence (Q03530 whole entry): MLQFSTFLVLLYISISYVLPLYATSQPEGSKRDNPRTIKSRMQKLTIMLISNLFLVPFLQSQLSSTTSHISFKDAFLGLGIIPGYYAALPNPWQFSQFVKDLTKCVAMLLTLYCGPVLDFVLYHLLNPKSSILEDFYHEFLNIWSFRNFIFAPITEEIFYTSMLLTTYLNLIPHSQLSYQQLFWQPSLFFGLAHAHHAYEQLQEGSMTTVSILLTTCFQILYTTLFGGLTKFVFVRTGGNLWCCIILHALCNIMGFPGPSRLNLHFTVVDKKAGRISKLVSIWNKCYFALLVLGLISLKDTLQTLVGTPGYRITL

Coagulation factor XII = target: T4, Coagulation factor XII (Homo sapiens, UniProt P00748); format: functional;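 note: activated factor XIIa alpha cleaving a fluorogenic AMC peptide substrate; inhibitor potency from loss of enzyme activity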
T4 sequence (P00748 whole entry): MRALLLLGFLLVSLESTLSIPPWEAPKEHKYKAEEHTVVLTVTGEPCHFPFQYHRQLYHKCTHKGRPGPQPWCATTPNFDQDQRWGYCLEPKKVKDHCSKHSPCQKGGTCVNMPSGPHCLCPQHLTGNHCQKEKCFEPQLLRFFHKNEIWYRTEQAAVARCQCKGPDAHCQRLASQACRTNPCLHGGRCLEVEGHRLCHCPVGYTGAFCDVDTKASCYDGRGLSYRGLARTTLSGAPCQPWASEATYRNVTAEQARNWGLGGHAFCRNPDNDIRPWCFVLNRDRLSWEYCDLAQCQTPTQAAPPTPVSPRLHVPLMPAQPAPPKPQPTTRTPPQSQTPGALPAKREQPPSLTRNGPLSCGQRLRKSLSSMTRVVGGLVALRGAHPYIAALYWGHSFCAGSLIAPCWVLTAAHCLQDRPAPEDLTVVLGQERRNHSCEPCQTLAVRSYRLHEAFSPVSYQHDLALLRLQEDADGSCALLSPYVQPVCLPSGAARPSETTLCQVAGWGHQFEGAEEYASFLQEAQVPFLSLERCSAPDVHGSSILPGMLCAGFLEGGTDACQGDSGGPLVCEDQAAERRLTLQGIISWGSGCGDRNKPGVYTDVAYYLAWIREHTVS

Vero [8] = test: cells; format: functional; settings: Chlorocebus sabaeus
[9] = target: T5, Heat shock factor protein 1 (Mus musculus, UniProt P38532); test: enhancement of HSF1-driven luciferase signal – cell-based, NIH3T3, luminescence, dose retest, confirmation (AID 435004); format: functional;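 note: stress induced by proteasome inhibitor MG132 added 30 min after compound; luciferase reporter driven by HSF1 response element in NIH3T3 cells; actives raise luminescence as potentiators of the MG132 stress response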
T5 sequence (P38532 whole entry): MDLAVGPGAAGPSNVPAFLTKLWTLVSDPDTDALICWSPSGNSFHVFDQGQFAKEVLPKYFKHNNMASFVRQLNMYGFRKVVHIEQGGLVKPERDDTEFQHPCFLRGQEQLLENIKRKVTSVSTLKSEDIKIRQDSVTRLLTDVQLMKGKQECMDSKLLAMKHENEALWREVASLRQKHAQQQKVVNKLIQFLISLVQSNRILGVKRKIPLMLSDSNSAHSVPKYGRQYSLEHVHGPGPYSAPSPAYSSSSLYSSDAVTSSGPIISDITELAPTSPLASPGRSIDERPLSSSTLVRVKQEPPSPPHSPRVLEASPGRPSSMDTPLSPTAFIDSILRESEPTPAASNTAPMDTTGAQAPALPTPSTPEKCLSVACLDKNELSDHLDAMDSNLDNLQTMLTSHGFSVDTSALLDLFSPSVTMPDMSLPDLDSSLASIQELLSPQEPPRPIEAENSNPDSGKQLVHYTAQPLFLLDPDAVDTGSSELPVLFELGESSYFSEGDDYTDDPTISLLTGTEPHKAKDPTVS

Vero [10] = test: cells; format: functional, cell-based; settings: Chlorocebus sabaeus
[11] = Luminescence Cell-Based Dose Retest to Confirm Inhibitors of Cancer Stem Cells. [Related pubchem assays (depositor defined):AID2717, AID2721]; format: functional; settings: Homo sapiens
INS1 = test: INS-1E survival protection against cytokine death – cell-based, luminescence, retest, dose response (AID 449756); format: functional; settings: Rattus norvegicus;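 note: cell death triggered by IL-1 beta plus TNF-alpha plus IFN-gamma mixture; protective hits raise ATP signal compared with cytokine alone wells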
HEK293 [12] = test: cells; settings: Homo sapiens
[13] = target: Induced myeloid leukemia cell differentiation protein Mcl-1 (Homo sapiens, UniProt Q07820); format: functional
HEK293 [14] = test: cells; settings: Homo sapiens; remark: listed apart in the source
[15] = target: Eukaryotic translation initiation factor 4E (Mus musculus, UniProt P63073); test: blockers of eIF4G binding by eIF4E – biochemical, TR-FRET, dose response (AID 855); format: functional;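 note: potency for disrupting eIF4E binding to eIF4GI seen as loss of FRET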
Eukaryotic translation initiation factor 4E, sequence (P63073 whole entry): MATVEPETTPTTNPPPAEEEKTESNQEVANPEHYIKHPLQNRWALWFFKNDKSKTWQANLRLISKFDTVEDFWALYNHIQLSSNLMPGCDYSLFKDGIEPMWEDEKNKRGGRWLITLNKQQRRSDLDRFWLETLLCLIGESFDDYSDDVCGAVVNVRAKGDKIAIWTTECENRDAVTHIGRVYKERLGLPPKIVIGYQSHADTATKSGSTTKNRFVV

SUMO-activating enzyme, sequence (Q9UBE0 whole entry): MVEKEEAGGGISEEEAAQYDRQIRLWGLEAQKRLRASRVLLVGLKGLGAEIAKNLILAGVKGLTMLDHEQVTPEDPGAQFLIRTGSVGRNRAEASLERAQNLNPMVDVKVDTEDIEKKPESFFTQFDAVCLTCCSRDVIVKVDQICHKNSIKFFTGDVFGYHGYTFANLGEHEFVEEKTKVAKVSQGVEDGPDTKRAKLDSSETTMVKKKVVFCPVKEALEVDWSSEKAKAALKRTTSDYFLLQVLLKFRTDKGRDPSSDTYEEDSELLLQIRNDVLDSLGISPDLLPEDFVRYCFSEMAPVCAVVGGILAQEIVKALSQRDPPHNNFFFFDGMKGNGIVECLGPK
SUMO-activating enzyme, sequence (Q9UBT2 whole entry): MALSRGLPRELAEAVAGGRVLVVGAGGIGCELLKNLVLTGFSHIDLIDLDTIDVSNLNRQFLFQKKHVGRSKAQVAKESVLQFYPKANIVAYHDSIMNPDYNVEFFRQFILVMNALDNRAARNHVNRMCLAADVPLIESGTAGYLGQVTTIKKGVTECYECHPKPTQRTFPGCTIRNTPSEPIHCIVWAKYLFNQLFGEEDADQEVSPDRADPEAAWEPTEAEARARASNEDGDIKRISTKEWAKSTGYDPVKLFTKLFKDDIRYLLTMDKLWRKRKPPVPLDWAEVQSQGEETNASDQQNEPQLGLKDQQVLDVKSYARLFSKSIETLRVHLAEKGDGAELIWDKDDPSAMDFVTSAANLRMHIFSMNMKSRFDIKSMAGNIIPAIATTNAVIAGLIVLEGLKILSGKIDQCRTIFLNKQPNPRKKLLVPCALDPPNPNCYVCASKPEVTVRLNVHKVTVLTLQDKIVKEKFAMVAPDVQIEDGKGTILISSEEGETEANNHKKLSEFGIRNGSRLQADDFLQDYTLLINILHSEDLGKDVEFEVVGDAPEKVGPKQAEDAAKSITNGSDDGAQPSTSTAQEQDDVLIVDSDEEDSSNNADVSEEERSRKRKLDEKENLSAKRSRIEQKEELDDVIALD
Induced myeloid leukemia cell differentiation protein Mcl-1, sequence (Q07820 whole entry): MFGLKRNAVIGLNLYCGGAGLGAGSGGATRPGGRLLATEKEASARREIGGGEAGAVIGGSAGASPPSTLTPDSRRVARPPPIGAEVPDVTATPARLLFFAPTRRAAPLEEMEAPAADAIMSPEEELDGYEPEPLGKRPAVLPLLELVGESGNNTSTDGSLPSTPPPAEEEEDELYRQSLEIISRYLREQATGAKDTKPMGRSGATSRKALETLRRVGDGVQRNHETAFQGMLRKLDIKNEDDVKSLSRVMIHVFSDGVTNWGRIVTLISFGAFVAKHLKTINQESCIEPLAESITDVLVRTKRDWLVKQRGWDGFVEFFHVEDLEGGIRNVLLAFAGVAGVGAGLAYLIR

COc1ccc(Cc2n[nH]c(=S)n2NC(=O)Nc2ccc(C)cc2)cc1
IC50 (SUMO-activating enzyme): > 100 µM (inactive)

COC(=O)/C(=C1/Oc2cc(C)oc(=O)c2S1)C(F)(F)F
CC50 [1]: 10.2 µM (active) | CC50 [2]: 7.26 µM (active) | AC50 [3]: 4.64 µM (active) | AC50 [4]: 16.6 µM (active) | AC50 [5]: 43 µM (active) | CC50 [6]: 9.91 µM (active) | AC50 [7]: > 380 µM (inactive) | EC50 (Protein RecA): 3.74 µM (active) | IC50 (cells): 1.64 µM (active)

Cc1ccc(-c2cc(C)nc3nc(N)nn23)cc1
AC50 (CAAX prenyl protease 2): 62.7 µM (active)

Cc1ccc(C(=O)NCC(=O)OC(C)C(=O)Nc2ccc(N3CCOCC3)cc2)s1 (configuration not stated)
IC50 (Coagulation factor XII): > 50 µM (inactive)

Sc1nnc(-c2cc(-c3ccccc3)[nH]n2)n1/N=C/C(Br)=C/c1ccccc1
CC50 (Vero [8]): > 25 µM (active) | EC50 [9]: 2.65 µM (inconclusive) | IC50 (Vero [10]): 6.87 µM (active) | AC50 [11]: 0.614 µM (active) | AC50 (INS1): 9.04 µM (active) | EC50 (HEK293 [12]): > 59.6 µM (inactive) | IC50 [13]: 4.97 µM (active) | EC50 (HEK293 [14]): > 59.6 µM (inactive)

COc1cc(OC)c(/C=N/NC(=O)c2ccc(NC(C)=O)cc2)cc1Br
IC50 [15]: 50 µM (inactive) | IC50 (SUMO-activating enzyme): 22.1 µM (active)
